Experimental data reported in patent US6358293B1, “Methods for rendering high concentrations of manganese safe for plant growth and formulations for same” (The Hampshire Chemical Corporation, priority 1999, dated 2002).

Key:
Geranium [1] = experiment: Growth promotion versus conventionally cultured and single-additive controls; assay type: in vivo
New Guinea Impatiens [2] = experiment: as above; assay type: in vivo
New Guinea Impatiens [3] = experiment: Effective foliar application doses; assay type: in vivo; conditions: 1 to 4 ml per plant
Experimental: (§1) The following are exemplary ranges of effective foliar application doses based on 1 to 4 ml per plant.

Corn = experiment: Effective foliar application doses; assay type: in vivo; conditions: 1 to 4 ml per plant
Experimental: as §1

Coleus [4] = experiment: Growth promotion versus conventionally cultured and single-additive controls; assay type: in vivo
Geranium [5] = experiment: Effective root application doses; assay type: in vivo; conditions: 10 ml per plant
Experimental: (§2) The following are exemplary ranges of effective root application doses based on 10 ml per plant.

Cabbage = experiment: Effective root application doses; assay type: in vivo; conditions: 10 ml per plant
Experimental: as §2

Coleus [6] = experiment: Effective root application doses; assay type: in vivo; conditions: 10 ml per plant
Experimental: as §2

plants = conditions: conventional conditions of plant culture, especially under acidic conditions; cited from earlier work

Row | SMILES | effect of additive on plant growth (Geranium [1]) | effect of additive on plant growth (New Guinea Impatiens [2]) | effective foliar application dose, MeG (New Guinea Impatiens [3]; MeG applied with Mn) | effective foliar application dose, MeG (Corn; MeG applied with Mn) | effect of additive on plant growth (Coleus [4]) | effective root application dose, MeG (Geranium [5]; MeG applied with Mn) | effective root application dose, MeG (Cabbage; MeG applied with Mn) | effective root application dose, MeG (Coleus [6]; MeG applied with Mn) | effective foliar application dose, Mn (New Guinea Impatiens [3]; Mn applied with MeG) | effective foliar application dose, Mn (Corn; Mn applied with MeG) | effective root application dose, Mn (Geranium [5]; Mn applied with MeG) | effective root application dose, Mn (Cabbage; Mn applied with MeG) | effective root application dose, Mn (Coleus [6]; Mn applied with MeG) | concentration at which manganese is phytotoxic to plants (plants)
1 | CO[C@H]1OC(CO)[C@H](O)[C@@H](O)[C@@H]1O (some centres unmarked) [MeG, methyl glucoside] | retarded growth | retarded growth | 200 to 500 mM | 5 to 25 mM | retarded growth | 10 to 100 mM | 10 to 30 mM | 5 to 50 mM | – | – | – | – | – | –
2 | [Mn+2] [Mn, manganese] | phytotoxic | phytotoxic | – | – | phytotoxic | – | – | – | 10 to 25 ppm | 10 to 25 ppm | 2 to 15 ppm | 2 to 15 ppm | 2 to 7 ppm | greater than 500 ppb
